The results in this text go back to patent US10131644B2, “Aryl sultam derivatives as RORc modulators” (Genentech, Inc., priority 2014, dated 2018).

A word on the IC50: it is the point on the concentration scale where inhibition reaches its midpoint.

Structures can show the parent of a compound that is named as a salt.

This assay deals with T1, RORc (Homo sapiens, UniProt P51449).
T1 sequence (P51449 269-508 limits assumed): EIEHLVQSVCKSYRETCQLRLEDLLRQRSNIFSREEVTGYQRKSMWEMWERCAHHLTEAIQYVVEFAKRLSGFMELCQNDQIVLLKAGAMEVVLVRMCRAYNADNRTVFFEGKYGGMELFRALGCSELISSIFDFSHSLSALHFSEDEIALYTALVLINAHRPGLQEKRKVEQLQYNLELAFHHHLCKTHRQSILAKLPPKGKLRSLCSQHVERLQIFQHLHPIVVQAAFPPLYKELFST
The assay is described as follows: In vitro RORc ligand binding assay (25-[3H]hydroxycholesterol displacement). Particulars: IC50, IC50 values for RORc; unit inferred.
`CNC(=O)COC1(c2cc(F)c(CN3[C@@H](C)CC[C@H](c4ccccc4)S3(=O)=O)cc2F)COC1` [Compound 177, 2-[3-[2,5-difluoro-4-[[(3S,6R)-3-methyl-1,1-dioxo-6-phenyl-thiazinan-2-yl]methyl]phenyl]oxetan-3-yl]oxy-N-methyl-acetamide]: the IC50 was found to be 4.35 nM.

`C[C@H]1CC[C@H](c2ccccc2)S(=O)(=O)N1Cc1cc(F)c(C2(OCC(=O)NCCO)CCOCC2)cc1F` [Compound 156, 2-[4-[2,5-difluoro-4-[[(3S,6R)-3-methyl-1,1-dioxo-6-phenyl-thiazinan-2-yl]methyl]phenyl]tetrahydropyran-4-yl]oxy-N-(2-hydroxyethyl)acetamide] registered a 50% inhibitory concentration (IC50) of 15.2 nM.

With `CC(=O)N1CCC(F)(c2ccc(CN3[C@@H](C)CC[C@H](c4ccccc4)S3(=O)=O)cc2)CC1` [Example 8, 1-{4-Fluoro-4-[4-((3S,6R)-3-methyl-1,1-dioxo-6-phenyl-[1,2]thiazinan-2-ylmethyl)-phenyl]-piperidin-1-yl}-ethanone], the IC50 was 200 nM.

Consider `C[C@H]1CC[C@H](c2ccccc2)S(=O)(=O)N1Cc1ccc(C2(C(=O)NCCS(C)(=O)=O)CCOCC2)cc1F` [Compound 60, 4-[3-fluoro-4-[[(3S,6R)-3-methyl-1,1-dioxo-6-phenyl-thiazinan-2-yl]methyl]phenyl]-N-(2-methylsulfonylethyl)tetrahydropyran-4-carboxamide], for which the IC50 is 111 nM.

On to `C[C@H]1CC[C@H](c2ccccc2)S(=O)(=O)N1Cc1ccc(C2(CCO)COC2)cc1F` [Compound 158], for which the 50% inhibitory concentration (IC50) came out at 60.3 nM.

As for `C[C@H]1CC[C@H](c2ccccc2)S(=O)(=O)N1Cc1ccc(C2(CCC(=O)N(C)C)CCOCC2)cc1F` [Compound 85, 3-[4-[3-fluoro-4-[[(3S,6R)-3-methyl-1,1-dioxo-6-phenyl-thiazinan-2-yl]methyl]phenyl]tetrahydropyran-4-yl]-N,N-dimethyl-propanamide], the half-maximal inhibitory concentration (IC50) worked out at 10.5 nM.

`CNC(=O)CNC1(c2ccc(CN3[C@@H](C)CC[C@H](c4ccccc4)S3(=O)=O)c(F)c2)CCOCC1` [Compound 173, 2-[[4-[3-fluoro-4-[[(3S,6R)-3-methyl-1,1-dioxo-6-phenyl-thiazinan-2-yl]methyl]phenyl]tetrahydropyran-4-yl]amino]-N-methyl-acetamide] came in with an IC50 of 33.1 nM. This IC50 is about 3.2-fold higher than that of the compound before.

Compound `C[C@H]1CC[C@H](c2ccccc2)S(=O)(=O)N1Cc1ccc(C2(NCCCO)CCOCC2)cc1F` [Compound 187, 3-[[4-[3-fluoro-4-[[(3S,6R)-3-methyl-1,1-dioxo-6-phenyl-thiazinan-2-yl]methyl]phenyl]tetrahydropyran-4-yl]amino]propan-1-ol] returned an IC50 of 74 nM.

Turning to `C[C@H]1CC[C@H](c2ccccc2)S(=O)(=O)N1Cc1ccc(C2(N(C)CC(N)=O)CCOCC2)cc1F` [Compound 188, 2-[[4-[3-fluoro-4-[[(3S,6R)-3-methyl-1,1-dioxo-6-phenyl-thiazinan-2-yl]methyl]phenyl]tetrahydropyran-4-yl]-methyl-amino]acetamide], the 50% inhibitory concentration (IC50) was 24 nM.

On to `C[C@H]1CC[C@H](c2ccccc2)S(=O)(=O)N1Cc1ccc(C2(C#N)CC2)cc1F` [Compound 109, 1-[3-fluoro-4-[[(3S,6R)-3-methyl-1,1-dioxo-6-phenyl-thiazinan-2-yl]methyl]phenyl]cyclopropanecarbonitrile], for which the IC50 is 116 nM. This IC50 lies about 4.8-fold higher than the previous one.

Consider `C[C@H]1CC[C@H](c2ccccc2)S(=O)(=O)N1Cc1ccc(C2(CO)CC2)cc1F` [Compound 112, [1-[3-fluoro-4-[[(3S,6R)-3-methyl-1,1-dioxo-6-phenyl-thiazinan-2-yl]methyl]phenyl]cyclopropyl]methanol], for which the IC50 was 206 nM.

`C[C@H]1CC[C@H](c2ccccc2)S(=O)(=O)N1Cc1ccc(C2(C#N)CCOCC2)cc1F` [Compound 61, 4-[3-fluoro-4-[[(3S,6R)-3-methyl-1,1-dioxo-6-phenyl-thiazinan-2-yl]methyl]phenyl]tetrahydropyran-4-carbonitrile]: the 50% inhibitory concentration (IC50) came out at 186 nM.

With `CC(=O)N1CCC(OCC(=O)O)(c2cc(F)c(CN3[C@@H](C)CC[C@H](c4ccccc4)S3(=O)=O)cc2F)CC1` [Compound 137, 2-[[1-acetyl-4-[2,5-difluoro-4-[[(3S,6R)-3-methyl-1,1-dioxo-6-phenyl-thiazinan-2-yl]methyl]phenyl]-4-piperidyl]oxy]acetic acid], the IC50 amounted to 17.9 nM.

`CC(=O)N[C@H]1CC[C@](C#N)(c2ccc(CN3[C@@H](C)CC[C@@H](c4ccccc4)S3(=O)=O)c(F)c2)CC1` [Compound 33, N-{4-Cyano-4-[3-fluoro-4-((3S,6S)-3-methyl-1,1-dioxo-6-phenyl-[1,2]thiazinan-2-ylmethyl)-phenyl]-cyclohexyl}-acetamide]: the IC50 turned out to be 1800 nM.

In turn, `C[C@H]1CC[C@H](c2ccccc2)S(=O)(=O)N1Cc1cc(F)c(C2(N[S+]([O-])C(C)(C)C)COC2)cc1F` (stereo partly drawn) [Compound 191, N-[3-[2,5-difluoro-4-[[(3S,6R)-3-methyl-1,1-dioxo-6-phenyl-thiazinan-2-yl]methyl]phenyl]oxetan-3-yl]-2-methyl-propane-2-sulfinamide] displayed an IC50 of 55.3 nM. Against the preceding compound, the IC50 is about 33-fold lower.

The compound `C[C@H]1CC[C@H](c2ccccc2)S(=O)(=O)N1Cc1ccc(C2(CCC#N)CCOCC2)cc1F` [Compound 86, 3-[4-[3-fluoro-4-[[(3S,6R)-3-methyl-1,1-dioxo-6-phenyl-thiazinan-2-yl]methyl]phenyl]tetrahydropyran-4-yl]propanenitrile] gave a 50% inhibitory concentration (IC50) of 7.8 nM.

Consider `C[C@H]1CC[C@H](c2ccccc2)S(=O)(=O)N1Cc1cc(F)c(C2(C#N)CC2)cc1F` [Compound 123, 1-[2,5-difluoro-4-[[(3S,6R)-3-methyl-1,1-dioxo-6-phenyl-thiazinan-2-yl]methyl]phenyl]cyclopropanecarbonitrile], for which the IC50 is 22.7 nM. Against the preceding compound, the IC50 is about 2.9-fold higher.

`C[C@H](NC1(c2ccc(CN3[C@@H](C)CC[C@H](c4ccccc4)S3(=O)=O)c(F)c2)CCOCC1)C(N)=O` [Compound 185, (2S)-2-[[4-[3-fluoro-4-[[(3S,6R)-3-methyl-1,1-dioxo-6-phenyl-thiazinan-2-yl]methyl]phenyl]tetrahydropyran-4-yl]amino]propanamide] gave a 50% inhibitory concentration (IC50) of 102 nM. Compared with the last compound, the IC50 is about 4.5-fold higher.

In the case of `C[C@H]1CC[C@H](c2ccccc2)S(=O)(=O)N1Cc1ccc(C2(CN)CCOCC2)cc1F` [Compound 75, [4-[3-fluoro-4-[[(3S,6R)-3-methyl-1,1-dioxo-6-phenyl-thiazinan-2-yl]methyl]phenyl]tetrahydropyran-4-yl]methanamine], the IC50 was determined as 639 nM.

Regarding `C[C@H]1CC[C@H](c2ccccc2)S(=O)(=O)N1Cc1cc(F)c(C2(OCC(O)CO)CCOCC2)cc1F` (stereo in doubt) [Compound 170, (2S)-3-[4-[2,5-difluoro-4-[[(3S,6R)-3-methyl-1,1-dioxo-6-phenyl-thiazinan-2-yl]methyl]phenyl]tetrahydropyran-4-yl]oxypropane-1,2-diol], the IC50 came to 11.7 nM.

As for `CC(=O)N1CCC(C#N)(c2cc(F)c(CN3[C@@H](C)CC[C@H](c4ccccc4)S3(=O)=O)cc2F)CC1` [Compound 148, 1-acetyl-4-[2,5-difluoro-4-[[(3S,6R)-3-methyl-1,1-dioxo-6-phenyl-thiazinan-2-yl]methyl]phenyl]piperidine-4-carbonitrile], the 50% inhibitory concentration (IC50) amounted to 14.5 nM.

As for `CC(=O)NCCNC(=O)C1(c2ccc(CN3[C@@H](C)CC[C@H](c4ccccc4)S3(=O)=O)c(F)c2)CCOCC1` [Compound 50, N-(2-acetamidoethyl)-4-[3-fluoro-4-[[(3S,6R)-3-methyl-1,1-dioxo-6-phenyl-thiazinan-2-yl]methyl]phenyl]tetrahydropyran-4-carboxamide], the 50% inhibitory concentration (IC50) is 250 nM.

In turn, `CC(=O)N1CC(OCC(=O)O)(c2cc(F)c(CN3[C@@H](C)CC[C@H](c4ccccc4)S3(=O)=O)cc2F)C1` [Compound 136, 2-[1-acetyl-3-[2,5-difluoro-4-[[(3S,6R)-3-methyl-1,1-dioxo-6-phenyl-thiazinan-2-yl]methyl]phenyl]azetidin-3-yl]oxyacetic acid] gave a 50% inhibitory concentration (IC50) of 17.2 nM.

As for `C[C@H]1CC[C@H](c2ccccc2)S(=O)(=O)N1Cc1ccc(C2(NC[C@@H](O)CO)CCOCC2)cc1F` [Compound 108], the 50% inhibitory concentration (IC50) is 50.4 nM.

For `C[C@H]1CC[C@H](c2ccccc2)S(=O)(=O)N1Cc1ccc(C2(N)CC2)cc1F` [Compound 153, 1-[3-fluoro-4-[[(3S,6R)-3-methyl-1,1-dioxo-6-phenyl-thiazinan-2-yl]methyl]phenyl]cyclopropanamine; hydrochloride], the IC50 turned out to be 572 nM.

Regarding `CC(=O)N[C@H]1CC[C@](C#N)(c2ccc(CN3[C@@H](C)CC[C@H](c4ccccc4)S3(=O)=O)c(F)c2)CC1` [Compound 34, N-{4-Cyano-4-[3-fluoro-4-((3S,6R)-3-methyl-1,1-dioxo-6-phenyl-[1,2]thiazinan-2-ylmethyl)-phenyl]-cyclohexyl}-acetamide], the IC50 stood at 2300 nM. Compared with the last compound, the IC50 is about 4-fold higher.

Regarding `C[C@H]1CC[C@H](c2ccccc2)S(=O)(=O)N1Cc1ccc([C@]2(C(N)=O)CC[C@@H](n3cnnc3)CC2)cc1F` [Compound 25, 1-[3-Fluoro-4-((3S,6R)-3-methyl-1,1-dioxo-6-phenyl-[1,2]thiazinan-2-ylmethyl)-phenyl]-4-[1,2,4]triazol-4-yl-cyclohexanecarboxylic acid amide], the IC50 turned out to be 22 nM. Compared with the last compound, the IC50 is about 100-fold lower.

For `COC(=O)C1(c2ccc(CN3[C@@H](C)CC[C@@H](c4ccccc4)S3(=O)=O)c(F)c2)CCOCC1` [Compound 38, 4-[3-Fluoro-4-((3S,6S)-3-methyl-1,1-dioxo-6-phenyl-[1,2]thiazinan-2-ylmethyl)-phenyl]-tetrahydro-pyran-4-carboxylic acid methyl ester], the IC50 was determined as 480 nM. Against the preceding compound, the IC50 is about 22-fold higher.

`C[C@@H](O)CNC(=O)C1(c2ccc(CN3[C@@H](C)CC[C@H](c4ccccc4)S3(=O)=O)c(F)c2)CCOCC1` [Compound 66] came in with an IC50 of 47.4 nM.
